# Reference: the OPERA property sets (Mansouri et al. 2018)
row,Structure (SMILES),logP
1,O=C(Nc1ccccc1[N+](=O)[O-])c1ccccc1O,2.87
2,Cc1cc(Cl)ccc1NC(=O)c1ccccc1O,5.18
3,O=C(Nc1ccc(Cl)cc1Cl)c1ccccc1O,5.49
4,O=C(Nc1ccc(Br)cc1)c1ccccc1O,4.51
5,O=C(Nc1ccc(Cl)cc1[N+](=O)[O-])c1cc(Br)cc(Br)c1O,5.05
6,O=C(Nc1ccc(F)cc1F)c1cc(Cl)cc(Cl)c1O,4.55
7,O=C(Nc1ccccc1)c1cc(Cl)cc(Cl)c1O,4.01
8,Cc1cc(Br)ccc1NC(=O)c1cc(F)ccc1O,5.15
9,O=C(Nc1ccc(Cl)cc1)c1cc(Br)ccc1O,5.02
10,O=C(Nc1ccc(Cl)cc1)c1ccccc1O,4.5
11,Cc1cc([N+](=O)[O-])ccc1NC(=O)c1cc(Cl)cc(Cl)c1O,4.51

# Results, then the molecule that gave them:
row,logP,Structure (SMILES)
1,5.08,O=C(Nc1ccc(Cl)cc1[N+](=O)[O-])c1cc(Cl)cc(Cl)c1O
2,4.35,O=C(Nc1ccccc1Cl)c1ccccc1O
3,4.99,O=C(Nc1ccc(F)cc1F)c1cc(Br)cc(Br)c1O
4,4.05,O=C(Nc1ccccc1)c1cc(Cl)ccc1O
5,4.76,O=C(Nc1ccc(F)cc1)c1cc(Cl)cc(Cl)c1O
6,5.15,O=C(Nc1ccc(Cl)cc1)c1cc(Cl)cc(Cl)c1O
7,3.66,O=C(Nc1ccccc1)c1cc([N+](=O)[O-])ccc1O
8,4.09,O=C(Nc1ccc(Cl)cc1[N+](=O)[O-])c1ccccc1O
9,4.89,Cc1cc(Cl)ccc1NC(=O)c1cc(F)ccc1O
10,4.21,Cc1ccccc1NC(=O)c1cc(Cl)ccc1O
